Here are results for one compound from patent US9945843B2, “Methods for identifying compounds that inhibit G protein-coupled receptor (GPR84) agonist-stimulated chemotaxis” (GALAPAGOS NV, priority 2011, dated 2018).

This assay has as its system tobacco smoke-induced pulmonary inflammation. Briefly: Mouse tobacco smoke model. Type of assay: in vivo. The settings on record: C57BL/6J mice, 4 daily tobacco smoke exposures; data not shown. From the text: To investigate test compounds, animals are divided into several groups: intact (no treatment, n=5), diseased (TS; vehicle alone, n=10), Roflumilast as reference (TS; Roflumilast n=10), and the test compound (TS; […]=10). […] At the end of 4 days, the numbers of macrophages, epithelial cells, neutrophils and lymphocytes are counted in the BAL. BAL was further analyzed for gene expression and protein level. Lung tissue is dissected for histological analysis, gene expression and protein level measurement.

Regarding `O=C(Nc1c(Cl)cncc1Cl)c1ccc(OC(F)F)c(OCC2CC2)c1` [Roflumilast], the “percentage inhibition of neutrophil counts in BAL” value is on record as “around 60%”.
